Consider 5 molecules from ChEMBL document CHEMBL4420076, “Amylin and calcitonin receptor agonist” (2017).

Numbered stars: 1 amine (or outer) side, 2 acyl side, 3 side chain; on linkers, the order of the positions; unused ones are H or OH. Peptide text beside a SMILES is read from it. * marks the point of attachment. C20 diacid = O=C(O)CCCCCCCCCCCCCCCCCCC(=O)*; C18 diacid = O=C(O)CCCCCCCCCCCCCCCCC(=O)*; γGlu = O=C(O)[C@H](CCC(=O)[*:2])N[*:1]

What is called solubility is how much of the substance goes into solution per volume. Low values mean a poorly soluble substance, high ones a readily soluble substance. The term EC50 denotes the concentration needed to bring the measured effect to its halfway point. As a reminder, the IC50 is the point on the concentration scale where inhibition reaches its midpoint.

Series [1] is described as follows: Stability in pH 7.5 buffer assessed as lag time for fibril formation at 1 uM by Thioflavin T based fluorescence assay. It is filed as physicochemical. The following applies: pH 7.5, 1 µM.
Series [2] in a line: Stability in pH 7.5 buffer assessed as compound recovery at 1 uM by Thioflavin T based fluorescence assay. It counts as physicochemical. The following applies: read-out: Drug recovery.
A short description of series [3]: Solubility in 100 mM glycylglycine buffer at pH 5.0 incubated for 18 hrs by UPLC analysis. It counts as physicochemical.
The nature of series [4]: Solubility in 100 mM bistrispropane buffer at pH 6.0 incubated for 18 hrs by UPLC analysis. It is filed as physicochemical.
A short description of series [5]: Solubility in 100 mM bistrispropane buffer at pH 7.0 incubated for 18 hrs by UPLC analysis. It is filed as physicochemical.
Series [6] is described as follows: Solubility in 100 mM bistrispropane buffer at pH 6.5 incubated for 18 hrs by UPLC analysis. It counts as physicochemical.
Series [7] in a line: Solubility in 100 mM bistrispropane buffer at pH 7.5 incubated for 18 hrs by UPLC analysis. It is filed as physicochemical.
Series [8] is described as follows: Solubility in 100 mM glycylglycine buffer at pH 4.0 incubated for 18 hrs by UPLC analysis. It is filed as physicochemical.
The target in series [9] is T1, Calcitonin receptor (Homo sapiens, UniProt P30988).
T1 sequence (P30988 whole entry): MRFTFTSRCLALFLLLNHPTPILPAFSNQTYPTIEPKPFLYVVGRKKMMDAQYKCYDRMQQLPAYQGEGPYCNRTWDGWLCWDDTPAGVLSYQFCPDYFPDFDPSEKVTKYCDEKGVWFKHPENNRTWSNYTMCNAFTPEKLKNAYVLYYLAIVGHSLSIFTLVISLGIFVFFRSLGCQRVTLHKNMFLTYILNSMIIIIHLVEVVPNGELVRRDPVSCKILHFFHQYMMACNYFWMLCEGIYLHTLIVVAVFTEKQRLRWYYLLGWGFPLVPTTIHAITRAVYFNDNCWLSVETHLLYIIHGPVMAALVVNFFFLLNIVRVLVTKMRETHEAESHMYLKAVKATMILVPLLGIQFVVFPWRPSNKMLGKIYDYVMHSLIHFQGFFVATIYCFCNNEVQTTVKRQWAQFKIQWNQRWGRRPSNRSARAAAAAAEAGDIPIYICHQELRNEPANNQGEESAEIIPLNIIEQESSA
The experiment in a line: Agonist activity at human calcitonin receptor expressed in BHK570 cells assessed as increase in intracellular cAMP concentration incubated for 3 hrs in presence of 10% FBS by CRE luciferase reporter gene assay. It counts as functional, cell-based. In general terms: In a reporter assay the amount or activity of a reporter protein is the signal.

Series [10] concerns the target T2, Amylin receptor AMY3; CALCR/RAMP3 (Homo sapiens, UniProt O60896+P30988).
T2 sequence (P30988 whole entry): T1 sequence (P30988 whole entry)
T2 sequence (O60896 whole entry): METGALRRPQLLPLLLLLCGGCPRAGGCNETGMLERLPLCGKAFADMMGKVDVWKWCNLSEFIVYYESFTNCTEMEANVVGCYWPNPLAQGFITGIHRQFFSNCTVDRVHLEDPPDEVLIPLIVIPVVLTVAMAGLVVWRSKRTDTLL
Kind of series: Agonist activity at human amylin receptor expressed in BHK570 cells co-expressing RAMP3 assessed as increase in intracellular cAMP concentration incubated for 3 hrs in absence of albumin by CRE luciferase reporter gene assay. It is filed as functional, cell-based.

A short description of series [11]: Solubility in 100 mM glycylglycine buffer at pH 3.0 incubated for 18 hrs by UPLC analysis. It is filed as physicochemical.
The nature of series [12]: Solubility in 100 mM bistrispropane buffer at pH 8.0 incubated for 18 hrs by UPLC analysis. It is filed as physicochemical.
Series [13] addresses T1, Calcitonin receptor. Kind of series: Agonist activity at human calcitonin receptor expressed in BHK570 cells assessed as increase in intracellular cAMP concentration incubated for 3 hrs in absence of albumin by CRE luciferase reporter gene assay. It counts as functional, cell-based.
Series [14] addresses T2, Amylin receptor AMY3; CALCR/RAMP3. The experiment in a line: Displacement of [125I]-labeled rat amylin from human amylin receptor expressed in BHK tkts13 whole cells co-expressing RAMP3 incubated for 60 mins by scintillation proximity assay. It counts as cell-based. In general terms: Loss of bound radioactivity is the signal in a displacement assay; it reports binding, not function.

For `CC(C)C[C@H](NC(=O)[C@H](C)NC(=O)[C@H](C)NC(=O)[C@@H](NC(=O)[C@H](CO)NC(=O)[C@H](CC(C)C)NC(=O)[C@H](CCC(=O)O)NC(=O)[C@H](CO)NC(=O)[C@H](C)NC(=O)CC[C@H](NC(=O)CCCCCCCCCCCCCCCCC(=O)O)C(=O)O)[C@@H](C)O)C(=O)NCC(=O)N[C@@H](CCCNC(=N)N)C(=O)N[C@@H](CC(C)C)C(=O)N[C@@H](CO)C(=O)N[C@@H](C)C(=O)N[C@@H](CCC(=O)O)C(=O)N[C@@H](CC(C)C)C(=O)N[C@@H](Cc1c[nH]cn1)C(=O)N[C@@H](CCC(=O)O)C(=O)N[C@@H](CC(C)C)C(=O)N[C@@H](C)C(=O)N[C@H](C(=O)N[C@@H](Cc1ccc(O)cc1)C(=O)N1CCC[C@H]1C(=O)N[C@@H](CCCNC(=N)N)C(=O)N[C@H](C(=O)N[C@@H](CCC(=O)O)C(=O)N[C@H](C(=O)NCC(=O)N[C@@H](CO)C(=O)NCC(=O)N[C@@H](CO)C(=O)N1CCC[C@H]1C(N)=O)[C@@H](C)O)[C@@H](C)O)[C@@H](C)O` ({C18 diacid-γGlu}-ASELSTAALGRLSAELHELATYPRTETGSGSP-NH2), in series [1], the Time is over 45 h. Further, the remaining at 1 µM in [2] was determined as 100%.
Consider `CC(C)C[C@H](NC(=O)[C@H](C)NC(=O)[C@H](C)NC(=O)[C@@H](NC(=O)[C@H](CO)NC(=O)[C@H](CC(C)C)NC(=O)[C@H](CCC(=O)O)NC(=O)[C@H](CO)NC(=O)[C@H](C)NC(=O)CC[C@H](NC(=O)CCCCCCCCCCCCCCCCCCC(=O)O)C(=O)O)[C@@H](C)O)C(=O)NCC(=O)N[C@@H](CCCNC(=N)N)C(=O)N[C@@H](CC(C)C)C(=O)N[C@@H](CO)C(=O)N[C@@H](C)C(=O)N[C@@H](CCC(=O)O)C(=O)N[C@@H](CC(C)C)C(=O)N[C@@H](Cc1cnc[nH]1)C(=O)N[C@@H](CCC(=O)O)C(=O)N[C@@H](CC(C)C)C(=O)N[C@@H](C)C(=O)N[C@H](C(=O)N[C@@H](CC(C)C)C(=O)N1CCC[C@H]1C(=O)N[C@@H](CCCNC(=N)N)C(=O)N[C@H](C(=O)N[C@@H](CCC(=O)O)C(=O)N[C@H](C(=O)NCC(=O)N[C@@H](CO)C(=O)NCC(=O)N[C@@H](CO)C(=O)N[C@@H](CO)C(N)=O)[C@@H](C)O)[C@@H](C)O)[C@@H](C)O` ({C20 diacid-γGlu}-ASELSTAALGRLSAELHELATLPRTETGSGSS-NH2), for which the solubility at 18 h in [3], in [4], in series [5], in series [6], in series [7] and in series [8] was at least 200 µM each time. In addition, the solubility at 18 h in [11] and in series [12] was at least 200 µM in each case. The EC50 is 0.154 nM at Calcitonin receptor [9], 0.063 nM in series [10] and 0.038 nM at Calcitonin receptor [13]. Further, in series [14], the half-maximal inhibitory concentration (IC50) was 4.07 nM. Further, the Time in [1] was over 45 h. Moreover, the remaining at 1 µM in [2] amounted to 100%.
As to `CC(C)C[C@H](NC(=O)[C@H](C)NC(=O)[C@H](C)NC(=O)[C@@H](NC(=O)[C@H](CO)NC(=O)[C@H](CC(C)C)NC(=O)[C@H](CCC(=O)O)NC(=O)[C@H](CO)NC(=O)[C@H](C)NC(=O)CC[C@H](NC(=O)CCCCCCCCCCCCCCCCCCC(=O)O)C(=O)O)[C@@H](C)O)C(=O)NCC(=O)N[C@@H](CCCNC(=N)N)C(=O)N[C@@H](CC(C)C)C(=O)N[C@@H](CO)C(=O)N[C@@H](C)C(=O)N[C@@H](CCC(=O)O)C(=O)N[C@@H](CC(C)C)C(=O)N[C@@H](Cc1cnc[nH]1)C(=O)N[C@@H](CCC(=O)O)C(=O)N[C@@H](CC(C)C)C(=O)N[C@@H](C)C(=O)N[C@H](C(=O)N[C@@H](CC(C)C)C(=O)N1CCC[C@H]1C(=O)N[C@@H](CCCNC(=N)N)C(=O)N[C@H](C(=O)N[C@@H](CCC(=O)O)C(=O)N[C@H](C(=O)NCC(=O)N[C@@H](CO)C(=O)NCC(=O)N[C@@H](CO)C(=O)N[C@@H](C)C(N)=O)[C@@H](C)O)[C@@H](C)O)[C@@H](C)O` ({C20 diacid-γGlu}-ASELSTAALGRLSAELHELATLPRTETGSGSA-NH2), the solubility at 18 h in series [3], in series [4], in series [5], in series [6], in series [7] and in series [8] was at least 200 µM throughout. The solubility at 18 h in series [11] and in series [12] was at least 200 µM throughout. Moreover, the EC50 is 0.102 nM at Calcitonin receptor [9], 0.067 nM in [10] and 0.04 nM on Calcitonin receptor [13]. Besides, the IC50 in [14] was 1.89 nM. Moreover, in [1], the Time is over 45 h. Further, the remaining at 1 µM in series [2] is 100%.
Consider `CC(C)C[C@H](NC(=O)[C@H](CO)NC(=O)CNC(=O)[C@H](CO)NC(=O)CNC(=O)[C@@H](NC(=O)[C@H](CCC(=O)O)NC(=O)[C@@H](NC(=O)[C@H](CCCNC(=N)N)NC(=O)[C@@H]1CCCN1C(=O)[C@H](CC(C)C)NC(=O)[C@@H](NC(=O)[C@H](C)NC(=O)[C@H](CC(C)C)NC(=O)[C@H](CCC(=O)O)NC(=O)[C@H](Cc1cnc[nH]1)NC(=O)[C@H](CC(C)C)NC(=O)[C@H](CCC(=O)O)NC(=O)[C@H](C)NC(=O)[C@H](CO)NC(=O)[C@H](CC(C)C)NC(=O)[C@H](CCCNC(=N)N)NC(=O)CNC(=O)[C@H](CC(C)C)NC(=O)[C@H](C)NC(=O)[C@H](C)NC(=O)[C@@H](NC(=O)[C@H](CO)NC(=O)[C@H](CC(C)C)NC(=O)[C@H](CCC(=O)O)NC(=O)[C@H](CO)NC(=O)[C@H](C)NC(=O)CC[C@H](NC(=O)CCCCCCCCCCCCCCCCCCC(=O)O)C(=O)O)[C@@H](C)O)[C@@H](C)O)[C@@H](C)O)[C@@H](C)O)C(N)=O` ({C20 diacid-γGlu}-ASELSTAALGRLSAELHELATLPRTETGSGSL-NH2), for which the solubility at 18 h in series [3], in [4], in [5], in [6], in series [7] and in series [8] was at least 200 µM each time. Also, the solubility at 18 h in [11] and in series [12] was at least 200 µM each time. Moreover, the 50% effective concentration (EC50) at Calcitonin receptor [13] worked out at 0.031 nM. Besides, the IC50 in [14] was 3.05 nM. Besides, in series [1], the Time was over 45 h. Also, the remaining at 1 µM in series [2] was 100%.
Consider `CC(C)C[C@H](NC(=O)[C@H](C)NC(=O)[C@H](C)NC(=O)[C@@H](NC(=O)[C@H](CO)NC(=O)[C@H](CC(C)C)NC(=O)[C@H](CCC(=O)O)NC(=O)[C@H](CO)NC(=O)[C@H](C)N)[C@@H](C)O)C(=O)NCC(=O)N[C@@H](CCCNC(=N)N)C(=O)N[C@@H](CC(C)C)C(=O)N[C@@H](CO)C(=O)N[C@@H](C)C(=O)N[C@@H](CCC(=O)O)C(=O)N[C@@H](CC(C)C)C(=O)N[C@@H](Cc1cnc[nH]1)C(=O)N[C@@H](CCC(=O)O)C(=O)N[C@@H](CC(C)C)C(=O)N[C@@H](C)C(=O)N[C@H](C(=O)N[C@@H](CC(C)C)C(=O)N1CCC[C@H]1C(=O)N[C@@H](CCCNC(=N)N)C(=O)N[C@H](C(=O)N[C@@H](CCCCNC(=O)CC[C@H](NC(=O)CCCCCCCCCCCCCCCCCCC(=O)O)C(=O)O)C(=O)N[C@H](C(=O)NCC(=O)N[C@@H](CO)C(=O)NCC(=O)N[C@@H](CO)C(=O)N1CCC[C@H]1C(N)=O)[C@@H](C)O)[C@@H](C)O)[C@@H](C)O`, for which the solubility at 18 h in [3], in [4], in [5], in [6], in [7] and in [8] was at least 200 µM each time. The solubility at 18 h in series [11] and in series [12] was at least 200 µM throughout. Besides, the Time in [1] was over 45 h. Besides, in series [2], the remaining at 1 µM was determined as 94%.
